Data taken from PubChem BioAssay (NCI).
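Cultured in 96-well plates, cells were exposed to test compound for 48 hours across five concentrations. At the GI50, growth is halved. At the TGI there is no net growth.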

Legend:
Test in all cases: growth of human tumour cells (NCI), 48 h
CAKI-1 renal = tested on: CAKI-1 renal
K-562 leukemia = tested on: K-562 leukemia
KM12 colon = tested on: KM12 colon
IGROV1 ovarian = tested on: IGROV1 ovarian
MOLT-4 leukemia = tested on: MOLT-4 leukemia
NCI/ADR-RES ovarian = tested on: NCI/ADR-RES ovarian
PC-3 prostate = tested on: PC-3 prostate
MDA-MB-435 = tested on: MDA-MB-435
HOP-92 NSCLC = tested on: HOP-92 NSCLC
A549 NSCLC = tested on: A549 NSCLC

SMILES | GI50 (CAKI-1 renal) [µM] | TGI (CAKI-1 renal) [µM] | GI50 (K-562 leukemia) [µM] | TGI (K-562 leukemia) [µM] | GI50 (KM12 colon) [µM] | TGI (KM12 colon) [µM] | GI50 (IGROV1 ovarian) [µM] | TGI (IGROV1 ovarian) [µM] | GI50 (MOLT-4 leukemia) [µM] | TGI (MOLT-4 leukemia) [µM] | GI50 (NCI/ADR-RES ovarian) [µM] | TGI (NCI/ADR-RES ovarian) [µM] | GI50 (PC-3 prostate) [µM] | TGI (PC-3 prostate) [µM] | GI50 (MDA-MB-435) [µM] | TGI (MDA-MB-435) [µM] | GI50 (HOP-92 NSCLC) [µM] | TGI (HOP-92 NSCLC) [µM] | GI50 (A549 NSCLC) [µM] | TGI (A549 NSCLC) [µM]
CN1CCN(CCCOc2ccc3nc(Nc4ccc(C(F)(F)F)c(Cl)c4)ccc3c2)CC1 | 1.72 | 3.82 | 0.595 | 2.07 | 1.5 | 3.05 | 2.33 | 5.3 | 1.63 | 3.91 | 1.88 | 5.22 | 1.68 | 3.56 | 1.63 | 3.16 | 1.15 | 2.94 | 1.92 | 3.48
Cc1ccc2nc(CC(=O)c3ccc4ccccc4c3)c(=O)[nH]c2c1 | – | > 100 | – | > 100 | – | > 100 | – | > 100 | – | > 100 | – | > 100 | – | > 100 | – | > 100 | – | > 100 | – | > 100
Cc1csc(-c2ccc3c(c2)COC3(CCCN(C)C)c2ccc(F)cc2)c1 (stereo not given) | 1.62 | 3.01 | 2.29 | 5.18 | 1.95 | 3.75 | 1.67 | 3.32 | 2.55 | 6.69 | 1.81 | 3.44 | 1.81 | 3.45 | 1.69 | 3.08 | 1.6 | 3.17 | 2.02 | 4.24
COc1cc([N+](=O)[O-])c(OC)cc1-c1nc2n(c1/C(N)=N/C(=N)N)CCS2 | – | – | > 100 | > 100 | > 100 | > 100 | 17.7 | > 100 | > 100 | > 100 | > 100 | > 100 | > 100 | > 100 | > 100 | > 100 | 41.9 | > 100 | 59.3 | > 100
O=C(Nc1ccc(O)c(NS(=O)(=O)c2ccc(F)cc2)c1)c1ccc(-c2ccccc2)cc1 | 5.65 | 32.6 | 3.68 | 14.6 | 10 | 23.3 | 4.65 | 20.5 | 2.58 | 11 | 5.67 | 20.7 | 3.84 | 16.7 | 8.12 | 26 | 2.68 | 17.1 | 4.81 | 29.9
Cc1nc2sc(C(=O)Nc3cccc(Cl)c3C)c(N)c2cc1C(=O)c1ccccc1 | 0.214 | > 50 | 0.199 | > 50 | 0.225 | > 50 | 0.419 | > 50 | 0.254 | > 50 | 0.192 | – | 0.258 | > 50 | 0.0988 | 0.257 | 0.259 | > 23.7 | 0.245 | > 50
CC#CC(=O)N[C@H]1CCCN(c2c(F)cc(C(N)=O)c3[nH]c(C)c(C)c23)C1 | 13.4 | 34.1 | 26.8 | > 100 | 14.3 | 46.4 | 14 | 31.6 | 18.8 | 93.6 | 19.9 | 49.6 | 21.5 | 62.2 | 16.6 | 34 | 15.6 | 64.7 | 21.3 | 70.2
Cc1ccc(C(CC(=O)c2ccccc2)C(C(=O)c2ccccc2)C(c2ccc(C)cc2)C2C(=O)NC(=S)NC2=O)cc1 (stereo not given) | 7.7 | 35 | 26.7 | > 50 | 15 | > 50 | 19.2 | > 50 | 8.85 | > 50 | 8.05 | > 50 | 10.4 | > 50 | 14.6 | > 50 | 11 | > 50 | 12.8 | > 50
O=c1cc(-c2ccccc2)nc2cc(-c3ccco3)[nH]n12 | 5.21 | 55.4 | 4.06 | > 100 | 3.26 | 50.6 | 7.91 | 60 | 10.7 | > 100 | 11.4 | 50.9 | 15 | > 100 | 1.97 | 5.67 | 10.5 | 93.3 | 12.6 | > 100
CNC(=O)c1c(NC(=O)c2ccc(C(C)C)cc2)sc2c1CCC(=O)C2 | 0.31 | 1.5 | 0.108 | > 100 | 0.404 | 1.69 | 0.542 | 2.4 | 0.5 | 7.91 | 0.461 | 2.24 | 0.152 | 1.32 | 1.07 | 3.93 | 0.703 | 3.39 | 0.401 | 5.45
Cc1ccc(C)c(N2C(=O)C(=O)c3c(C)ccc(C)c32)c1 | – | 87.1 | – | 48.5 | – | 66.1 | – | 43.4 | – | 48.8 | – | 62.9 | – | > 100 | – | 46.4 | – | 96.8 | – | > 100
C=C(CN(C)C)C(=O)c1ccc(OC)cc1 | – | 5.18 | – | 4.39 | – | 39.4 | – | 22 | – | 2.06 | – | 34.2 | – | 28.5 | – | 26.4 | – | 3.28 | – | 42.8
O=C(Nc1ccc(Cl)cc1F)c1cc(Cl)ccc1O | 0.298 | 2.52 | 0.361 | > 59.2 | 1.51 | 4.28 | 0.247 | > 100 | 1.14 | 3.99 | 0.364 | 2.38 | 1.28 | 5.64 | 0.499 | 5.26 | 0.157 | 0.553 | 1.34 | > 100
O=C(c1ccncc1)N1CCN(C2=NS(=O)(=O)c3ccccc3N2c2ccccc2)CC1 | 30.3 | 88.5 | 7.79 | > 100 | 29.2 | > 100 | 25.1 | > 100 | – | – | > 100 | > 100 | 22.2 | > 100 | 18.9 | 40 | 4.07 | 21.4 | 20.6 | > 100
